US4314998A, “6-Deoxyglucosamine-peptide derivatives, their production and use” (Takeda Chemical Industries, Ltd., priority 1979, dated 1982)

Test system: Meth-A fibrosarcoma cells
Experiment: Inhibition of growth of Meth-A fibrosarcoma in mice (compound mixed with tumor cells)
Format: in vivo
Settings: 100 μg mixed with 5×10^4 Meth-A fibrosarcoma cells, intracutaneous, female Balb/C mice
Description: For example, 100 μg of the compounds obtained in accordance with the present invention suspended in a phosphate-buffered saline and mixed with 5×10^4 Meth-A fibrosarcoma cells, followed by intracutaneous administration to female Balb/C mice. The effects to inhibit the growth of Meth-A were examined at 1 week intervals until the 4th week after the administration.

Measured: The number of tumor-free mice/the number of mice tested

2-(2-acetamido-2,6-dideoxy-6-mycoloylamino-D-glucopyranos-3-O-yl)-D-propionyl-L-alanyl-D-isoglutamine [Example 7]
10/10: week 2 | week 3 | week 4

2-(2-acetamido-2,6-dideoxy-6-mycoloylamino-D-glucopyranos-3-O-yl)-D-propionyl-L-valyl-D-isoglutamine [Example 9]
10/10: week 1 | week 2 | week 3 | week 4
